Assay [1] has as its system primary human T-cells.
Assay [2] concerns primary human T-cells. Description: Proliferation assay after 5 days (CellTiter-Glo, CD3 stimulation; PBS counter screen). It is filed as cell-based. The settings on record: Homo sapiens, T-cell, 120 h, CD3 stimulation; for Emax: 5 days, normalized to reference compound A1 as stimulator control = 100%, DMSO neutral control, read-out: Emax proliferation (% activation); for EC50: primary human T-cells, CellTiter-Glo after 5 days, EC50 of fitted sigmoidal curve, read-out: Tcell Proliferation CD3 EC50. The gist of the method:
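Read-out: CellTiter-Glo 2.0 luminescence (ATP ∝ cell number) at day 5 after compound addition. Compounds activating unstimulated cells or reducing viability flagged.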
On the technique in general: Cellular ATP, detected with luciferase, serves as a proxy for viable cell number.

Read-outs that look alike come from different tables or passages of the source.

For the compound `CC(C)(F)c1nnc(-c2cc3c(cc2F)S(=O)(=O)C[C@H](N)C(=O)N3Cc2ccc(Cl)cc2)o1` [Example 70, (3R)-3-Amino-5-[(4-chlorophenyl)methyl]-8-fluoro-7-[5-(1-fluoro-1-methyl-ethyl)-1,3,4-oxadiazol-2-yl]-1,1-dioxo-2,3-dihydro-1λ^6,5-benzothiazepin-4-one], the figures for the EC50 in assay [1] and in assay [2] were 74.6 nM and 214 nM, respectively. Moreover, the Emax in assay [2] came to 255%.

Consider `CC(C)(C)c1nnc(-c2cc3c(cc2F)S(=O)(=O)C[C@H](N)C(=O)N3Cc2cccc(Cl)c2)o1` [Example 219, (3R)-3-amino-7-(5-tert-butyl-1,3,4-oxadiazol-2-yl)-5-[(3-chlorophenyl)methyl]-8-fluoro-1,1-dioxo-2,3-dihydro-1λ^6,5-benzothiazepin-4-one], for which the results for the EC50 in assay [1] and in assay [2] were 3210 nM and 2740 nM, respectively. Moreover, in assay [2], the Emax was found to be 105%.

In the case of `CC(C)(C)n1nnc(-c2cc3c(cc2F)S(=O)(=O)C[C@H](N)C(=O)N3Cc2ccc(OC(F)(F)F)cc2)n1` [Example 30, (3R)-3-amino-7-(2-tert-butyltetrazol-5-yl)-8-fluoro-1,1-dioxo-5-[[4-(trifluoromethoxy)phenyl]methyl]-2,3-dihydro-1λ^6,5-benzothiazepin-4-one], the EC50 in assay [1] worked out at 39.8 nM. Also, in assay [2], the Emax was 117% and the EC50 came to 43.5 nM.

In assay [1], `CC(F)(F)CNc1nnc(-c2ccc3c(c2)N(Cc2ccc(Cl)cc2)C(=O)[C@@H](N)CS3(=O)=O)o1` [Example 393, (3R)-3-amino-5-[(4-chlorophenyl)methyl]-7-[5-(2,2-difluoropropylamino)-1,3,4-oxadiazol-2-yl]-1,1-dioxo-2,3-dihydro-1λ^6,5-benzothiazepin-4-one] gave an EC50 of 4010 nM. Moreover, in assay [2], the Emax worked out at 51% and the EC50 is 2820 nM.

Take `Cc1c(F)c(-c2nnc(C(C)(C)C)o2)cc2c1S(=O)(=O)C[C@H](N)C(=O)N2Cc1ccc(Cl)cc1` [Example 218, (3R)-3-amino-7-(5-tert-butyl-1,3,4-oxadiazol-2-yl)-5-[(4-chlorophenyl)methyl]-8-fluoro-9-methyl-1,1-dioxo-2,3-dihydro-1λ^6,5-benzothiazepin-4-one]: in assay [1], the EC50 turned out to be 7860 nM. In assay [2], the Emax was 80% and the EC50 came out at 3890 nM.

In assay [1], `COC(=O)N1CC2(c3nnc(-c4cc5c(cc4F)S(=O)(=O)C[C@H](N)C(=O)N5Cc4ccc(Cl)cc4)o3)CC1CO2` (stereo partly drawn) [Example 120, methyl 1-[5-[(3R)-3-amino-5-[(4-chlorophenyl)methyl]-8-fluoro-1,1,4-trioxo-2,3-dihydro-1λ^6,5-benzothiazepin-7-yl]-1,3,4-oxadiazol-2-yl]-2-oxa-5-azabicyclo[2.2.1]heptane-5-carboxylate] yielded an EC50 of 256 nM. In assay [2], the Emax is 96% and the EC50 was determined as 129 nM.

Compound `CC(C)(c1nnc(-c2cc3c(cc2F)S(=O)(=O)C[C@H](N)C(=O)N3Cc2ccc(Cl)cc2)o1)C(N)C(F)(F)F` (stereo partly drawn) [Example 136, (3R)-3-amino-7-[5-(2-amino-3,3,3-trifluoro-1,1-dimethyl-propyl)-1,3,4-oxadiazol-2-yl]-5-[(4-chlorophenyl)methyl]-8-fluoro-1,1-dioxo-2,3-dihydro-1λ^6,5-benzothiazepin-4-one] had an EC50 in assay [1] of 187 nM. In addition, in assay [2], the Emax is 99% and the EC50 is 114 nM.

Regarding `N[C@H]1CS(=O)(=O)c2cc(F)c(-c3nnc(-c4ccc(F)cn4)o3)cc2N(Cc2ccc(Cl)cc2)C1=O` [Example 135, (3R)-3-amino-5-[(4-chlorophenyl)methyl]-8-fluoro-7-[5-(5-fluoro-2-pyridyl)-1,3,4-oxadiazol-2-yl]-1,1-dioxo-2,3-dihydro-1λ^6,5-benzothiazepin-4-one], the EC50 was found to be 2900 nM in assay [1] and 1050 nM in assay [2]. Also, the Emax in assay [2] stood at 93%.

Values taken from patent publication US20240368150A1 (Hoffmann-La Roche Inc., priority 2021, published 2024).
